Tested on: P12-Ichikawa
Experiment: cell viability relative to DMSO control; higher = less cytotoxic
Conditions: 48 h
How it was run: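 NOMO1 or SEM cells were plated at 500 cells/well and P12-Ichikawa cells at 1000 cells/well in 1536-well plates (5 μl), after each leukemia line had been adapted for at least four passages in each medium. Pin dosing delivered library compounds in DMSO at 11 threefold concentrations, 47 μM to 0.79 nM. CellTiter-Glo One luminescence was read after 48 h at 37°C. Viability is reported as a per-plate percentage of DMSO wells, with cell-free wells as background.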

[1] = HPLM + 10% dialyzed FBS, 0.000781 µM
[2] = HPLM + 10% dialyzed FBS, 0.00234 µM
[3] = HPLM + 10% dialyzed FBS, 0.00702 µM
[4] = HPLM + 10% dialyzed FBS, 0.0211 µM
[5] = HPLM + 10% dialyzed FBS, 0.0632 µM
[6] = HPLM + 10% dialyzed FBS, 0.19 µM
[7] = HPLM + 10% dialyzed FBS, 0.569 µM
[8] = HPLM + 10% dialyzed FBS, 1.71 µM
[9] = HPLM + 10% dialyzed FBS, 5.12 µM
[10] = HPLM + 10% dialyzed FBS, 15.4 µM
[11] = HPLM + 10% dialyzed FBS, 46.1 µM
[12] = RPMI 5 mM glucose + 10% FBS, 0.000781 µM
[13] = RPMI 5 mM glucose + 10% FBS, 0.00234 µM
[14] = RPMI 5 mM glucose + 10% FBS, 0.00702 µM
[15] = RPMI 5 mM glucose + 10% FBS, 0.0211 µM
[16] = RPMI 5 mM glucose + 10% FBS, 0.0632 µM
[17] = RPMI 5 mM glucose + 10% FBS, 0.19 µM
[18] = RPMI 5 mM glucose + 10% FBS, 0.569 µM
[19] = RPMI 5 mM glucose + 10% FBS, 1.71 µM
[20] = RPMI 5 mM glucose + 10% FBS, 5.12 µM
[21] = RPMI 5 mM glucose + 10% FBS, 15.4 µM
[22] = RPMI 5 mM glucose + 10% FBS, 46.1 µM
[23] = RPMI 5 mM glucose + 10% dialyzed FBS, 0.000781 µM
[24] = RPMI 5 mM glucose + 10% dialyzed FBS, 0.00234 µM
[25] = RPMI 5 mM glucose + 10% dialyzed FBS, 0.00702 µM
[26] = RPMI 5 mM glucose + 10% dialyzed FBS, 0.0211 µM
[27] = RPMI 5 mM glucose + 10% dialyzed FBS, 0.0632 µM
[28] = RPMI 5 mM glucose + 10% dialyzed FBS, 0.19 µM
[29] = RPMI 5 mM glucose + 10% dialyzed FBS, 0.569 µM
[30] = RPMI 5 mM glucose + 10% dialyzed FBS, 1.71 µM
[31] = RPMI 5 mM glucose + 10% dialyzed FBS, 5.12 µM
[32] = RPMI 5 mM glucose + 10% dialyzed FBS, 15.4 µM
[33] = RPMI 5 mM glucose + 10% dialyzed FBS, 46.1 µM

Row | Structure (SMILES) | cell viability [1] | cell viability [2] | cell viability [3] | cell viability [4] | cell viability [5] | cell viability [6] | cell viability [7] | cell viability [8] | cell viability [9] | cell viability [10] | cell viability [11] | cell viability [12] | cell viability [13] | cell viability [14] | cell viability [15] | cell viability [16] | cell viability [17] | cell viability [18] | cell viability [19] | cell viability [20] | cell viability [21] | cell viability [22] | cell viability [23] | cell viability [24] | cell viability [25] | cell viability [26] | cell viability [27] | cell viability [28] | cell viability [29] | cell viability [30] | cell viability [31] | cell viability [32] | cell viability [33]
1 | C[C@@H]1COCCN1C\2=C\C(=O)N\3CC[C@H](N(CC4=CN=CC(=C4)Cl)C3=N2)C(F)(F)F | 94% | 101% | 98.9% | 94.3% | 97.5% | 103% | 101% | 104% | 85% | 32.7% | 22.5% | 91.4% | 94.1% | 95.7% | 89.2% | 98.3% | 107% | 97.2% | 108% | 76.5% | 40% | 17.5% | 99.4% | 102% | 106% | 98.8% | 107% | 99.6% | 114% | 99.8% | 86% | 30.8% | 17.6%
2 | Cc1cccc(-c2nn(C(=S)Nc3ccccc3)cc2-c2ccnc3ccccc23)n1 | 115% | 122% | 120% | 117% | 117% | 109% | 113% | 101% | 109% | 86.3% | 78.3% | 115% | 123% | 113% | 124% | 109% | 117% | 111% | 100% | 108% | 91.4% | 74.3% | 121% | 109% | 122% | 114% | 118% | 110% | 119% | 108% | 98.9% | 49% | 73.1%
3 | c1cc(CN2CCCNCCNCCCNCC2)ccc1CN1CCCNCCNCCCNCC1 | 84% | 90.4% | 96.5% | 10.2% | 101% | 104% | 109% | 102% | 102% | 116% | 117% | 80.6% | 90.8% | 95.2% | 12.9% | 101% | 97.6% | 101% | 103% | 99% | 111% | 106% | 86.3% | 93.9% | 92.9% | 24.9% | 94.9% | 99.6% | 101% | 101% | 103% | 96.5% | 103%
4 | CCn1c(-c2nonc2N)nc2cncc(CNC3CCNCC3)c21 | 122% | 123% | 123% | 123% | 130% | 129% | 117% | 104% | 88.6% | 10.1% | 13.7% |  |  |  |  |  |  |  |  |  |  |  |  |  |  |  |  |  |  |  |  |  | 
5 | N=C(N)NC(=O)c1nc(Cl)c(N)nc1N | 106% | 116% | 114% | 127% | 120% | 116% | 130% | 120% | 59.8% | 16.9% | 9.59% |  |  |  |  |  |  |  |  |  |  |  | 104% | 114% | 115% | 124% | 115% | 126% | 130% | 128% | 116% | 56.1% | 17.5%
6 | CN(C)CCc1c[nH]c2ccc(C[C@H]3COC(=O)N3)cc12 | 98.4% | 109% | 109% | 115% | 105% | 105% | 116% | 112% | 88.7% | 13.7% | 9.01% | 105% | 101% | 112% | 104% | 111% | 117% | 116% | 102% | 84.1% | 36.2% | 6.37% | 108% | 100% | 105% | 111% | 106% | 111% | 104% | 112% | 80.2% | 38.2% | 7.95%
7 | C[C@@]12O[C@@H](C[C@]1(O)CO)n1c3ccccc3c3c4c(c5c6ccccc6n2c5c31)CNC4=O | 115% | 112% | 109% | 112% | 110% | 101% | 81.3% | 29.9% | 23.2% | 15.2% | 12.9% | 116% | 117% | 121% | 110% | 111% | 98.2% | 70.5% | 26.1% | 26.6% | 15.6% | 8.24% | 115% | 109% | 115% | 103% | 97.6% | 104% | 62.3% | 33.8% | 24.3% | 9.03% | 8.99%
